# How the values were obtained:
# acetylcholine esterase = acetylcholine esterase (Homo sapiens, UniProt P22303); assay: electrochemical flow cell assay of inhibition of acetylcholine esterase (esterase/choline oxidase/peroxidase cascade); type: biochemical
# Description: An aqueous carrier liquid is prepared in an oxygen-containing atmosphere to comprise the buffer of Example 1 and acetylcholine, the total volume of the liquid being less than 0.1 mL. Two samples are prepared. The first sample contains only the buffered acetylcholine solution; the second sample contains the liquid carrier and 100 pg malathion, an insecticide.
# The first sample is introduced into the flow cell through the inlet, and the working electrode is poised at +0.1 V versus the standard calomel electrode. The acetylcholine in the solution is hydrolyzed by the esterase on the electrode, producing choline, which, in turn, combines with dissolved oxygen to form hydrogen peroxide. The hydrogen peroxide is electroreduced to water. An electric current is produced between the electrodes as a result. The current produced provides a baseline against which current produced as a result of enzymatic inhibition is measured.
# horseradish peroxidase = horseradish peroxidase (Armoracia rusticana, UniProt P00433); details: pH 7
# horseradish peroxidase, sequence (P00433 31-338): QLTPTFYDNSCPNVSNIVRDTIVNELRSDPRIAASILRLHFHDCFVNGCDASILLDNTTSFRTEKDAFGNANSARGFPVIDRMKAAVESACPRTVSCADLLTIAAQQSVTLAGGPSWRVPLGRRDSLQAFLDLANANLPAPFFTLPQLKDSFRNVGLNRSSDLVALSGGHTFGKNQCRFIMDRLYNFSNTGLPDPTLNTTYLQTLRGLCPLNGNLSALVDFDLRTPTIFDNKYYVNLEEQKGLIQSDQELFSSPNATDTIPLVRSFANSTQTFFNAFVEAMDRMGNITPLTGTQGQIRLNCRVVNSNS
# Description: A system with a total volume of 0.1 mL comprising a flow cell is constructed. The cell comprises a detection chamber having an interior volume of 5 μl, an inlet for directing a stream of liquid into the detection chamber, and an outlet for directing liquid out of the detection chamber. The detection chamber contains a working electrode for assessing the capability of candidate compounds for inhibiting the catalytic activity of horseradish peroxidase, a carbon paste counter electrode, and downstream from the working electrode, near the outlet, a standard calomel reference electrode. The working electrode is formed by co-depositing on a conductive substrate horseradish peroxidase and a redox polymer formed of poly(4-vinyl pyridine) partially reacted with 2-bromoethylamine and partially complexed with [Os(bpy)2Cl]^+/2+ where bpy=2,2′-bipyridine complex of osmium (2+/3+) and poly(4-vinyl pyridine). The horseradish peroxidase and the redox polymer are crosslinked on the substrate by periodate oxidation, whereby aldehyde functions are produced in the oligosaccharides of the peroxidase, and by adding PEGDGE, polyethylene glycol diglycidyl ether.
# An aqueous pH 7 phosphate buffer comprises 0.15 M NaCl and 1 mM hydrogen peroxide. Three liquid samples are prepared, each sample 0.1 mL. […]
# acetylcholine esterase, sequence (P22303 32-614): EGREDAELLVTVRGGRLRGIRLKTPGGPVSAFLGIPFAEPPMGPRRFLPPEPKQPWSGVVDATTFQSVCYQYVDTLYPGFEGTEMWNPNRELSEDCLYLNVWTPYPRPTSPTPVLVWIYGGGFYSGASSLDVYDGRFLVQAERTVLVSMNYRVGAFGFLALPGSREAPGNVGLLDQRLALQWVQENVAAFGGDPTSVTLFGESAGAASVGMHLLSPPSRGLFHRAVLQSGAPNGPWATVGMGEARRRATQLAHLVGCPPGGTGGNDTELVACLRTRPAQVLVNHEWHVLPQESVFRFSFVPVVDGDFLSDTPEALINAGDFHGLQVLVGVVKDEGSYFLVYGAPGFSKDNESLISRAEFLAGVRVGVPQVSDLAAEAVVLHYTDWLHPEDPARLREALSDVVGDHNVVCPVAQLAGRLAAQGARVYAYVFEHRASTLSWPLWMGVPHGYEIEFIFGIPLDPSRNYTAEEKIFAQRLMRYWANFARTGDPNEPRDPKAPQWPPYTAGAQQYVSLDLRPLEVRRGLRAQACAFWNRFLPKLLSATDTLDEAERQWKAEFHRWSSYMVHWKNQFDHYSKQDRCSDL
Compound,"current passing from one electrode to another, versus baseline (inhibition of catalytic activity of acetylcholine esterase) (acetylcholine esterase)","current passing from one electrode to another, versus baseline (inhibition of catalytic activity of horseradish peroxidase) (horseradish peroxidase)"
CCOC(=O)CC(SP(=S)(OC)OC)C(=O)OCC (centres unmarked) [malathion],decreased,
"[N-]=[N+]=[N-].[Na+] [azide, sodium azide]",,decreased
